PubChem BioAssay AID1963975 (Molecular Pharmacology Branch, DTP, NCI, 2024)

Test system: 624824-186-R-J2-PDC multicell spheroids, viability
Experiment: Anticancer human tumor 624824-186-R-J2-PDC patient-derived colon adenocarcinoma cell line growth inhibition [PI3K]
Conditions: for IC50: curve of first compound; for viability, T/C: stronger effect = lower value
In short: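 Agents were dosed from a top concentration near clinical Cmax (otherwise 10 microM) in half-log decrements, alone or combined with PI3K inhibitors. The spheroids contain tumor cells plus endothelial (HUVEC) and MSC stroma; viability is measured.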

[1] = second compound 0.00316 µM, first compound 0.0316 µM
[2] = second compound 0.00316 µM, first compound 0.1 µM
[3] = second compound 0.00316 µM, first compound 0.316 µM
[4] = second compound 0.00316 µM, first compound 1 µM
[5] = second compound 0.01 µM, first compound 0.0316 µM
[6] = second compound 0.01 µM, first compound 0.1 µM
[7] = second compound 0.01 µM, first compound 0.316 µM
[8] = second compound 0.01 µM, first compound 1 µM
[9] = second compound 0.0316 µM, first compound 0.0316 µM
[10] = second compound 0.0316 µM, first compound 0.1 µM
[11] = second compound 0.0316 µM, first compound 0.316 µM
[12] = second compound 0.0316 µM, first compound 1 µM
[13] = second compound 0.1 µM, first compound 0.0316 µM
[14] = second compound 0.1 µM, first compound 0.1 µM
[15] = second compound 0.1 µM, first compound 0.316 µM
[16] = second compound 0.1 µM, first compound 1 µM
[17] = second compound 0.316 µM, first compound 0.0316 µM
[18] = second compound 0.316 µM, first compound 0.1 µM
[19] = second compound 0.316 µM, first compound 0.316 µM
[20] = second compound 0.316 µM, first compound 1 µM
[21] = second compound 1 µM, first compound 0.0316 µM
[22] = second compound 1 µM, first compound 0.1 µM
[23] = second compound 1 µM, first compound 0.316 µM
[24] = second compound 1 µM, first compound 1 µM
[25] = second compound 0.00316 µM, first compound 0.00316 µM
[26] = second compound 0.00316 µM, first compound 0.01 µM
[27] = second compound 0.01 µM, first compound 0.00316 µM
[28] = second compound 0.01 µM, first compound 0.01 µM
[29] = second compound 0.0316 µM, first compound 0.00316 µM
[30] = second compound 0.0316 µM, first compound 0.01 µM
[31] = second compound 0.1 µM, first compound 0.00316 µM
[32] = second compound 0.1 µM, first compound 0.01 µM
[33] = second compound 0.316 µM, first compound 0.00316 µM
[34] = second compound 0.316 µM, first compound 0.01 µM
[35] = second compound 1 µM, first compound 0.00316 µM
[36] = second compound 1 µM, first compound 0.01 µM
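Further: spheroids exposed to agents for 7 days before viability read.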
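Wherever viability, T/C is given: 100% = DMSO vehicle treated spheroids.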

Q: For CC(C)NCC(C(=O)N1CCN(c2ncnc3c2C(C)CC3O)CC1)c1ccc(Cl)cc1 (stereo unspecified) + CC(Nc1ccc2c(c1)OCCn1cc(N3C(=O)OCC3C(F)F)nc1-2)C(N)=O, which IC50 (second compound 0.00316 µM) is on record?
A: > 10000 nM

Q: What about the IC50 (second compound 0.01 µM) of the same molecule?
A: > 10000 nM

Q: And the IC50 (second compound 0.0316 µM)?
A: > 10000 nM

Q: And the IC50 (second compound 0.1 µM)?
A: > 10000 nM

Q: What about the IC50 (second compound 0.316 µM) of the same molecule?
A: > 10000 nM

Q: What about the IC50 (second compound 1 µM) of the same molecule?
A: > 10000 nM

Q: And the viability, T/C [1]?
A: 113%

Q: What about the viability, T/C [2] of the same molecule?
A: 113%

Q: What about the viability, T/C [3] of the same molecule?
A: 113%

Q: What about the viability, T/C [4] of the same molecule?
A: 94.6%

Q: What about the viability, T/C (second compound 0.00316 µM, first compound 3.16 µM) of the same molecule?
A: 94.9%

Q: What about the viability, T/C (second compound 0.00316 µM, first compound 10 µM) of the same molecule?
A: 92.1%

Q: What about the viability, T/C [5] of the same molecule?
A: 88.3%

Q: And the viability, T/C [6]?
A: 79.1%

Q: And the viability, T/C [7]?
A: 72.1%

Q: What about the viability, T/C [8] of the same molecule?
A: 87%

Q: And the viability, T/C (second compound 0.01 µM, first compound 3.16 µM)?
A: 90.7%

Q: What about the viability, T/C (second compound 0.01 µM, first compound 10 µM) of the same molecule?
A: 79.7%

Q: And the viability, T/C [9]?
A: 98%

Q: And the viability, T/C [10]?
A: 95.4%

Q: And the viability, T/C [11]?
A: 82.7%

Q: What about the viability, T/C [12] of the same molecule?
A: 92.8%

Q: What about the viability, T/C (second compound 0.0316 µM, first compound 3.16 µM) of the same molecule?
A: 95.4%

Q: What about the viability, T/C (second compound 0.0316 µM, first compound 10 µM) of the same molecule?
A: 89.4%

Q: And the viability, T/C [13]?
A: 85.7%

Q: And the viability, T/C [14]?
A: 84.6%

Q: And the viability, T/C [15]?
A: 68%

Q: And the viability, T/C [16]?
A: 84.1%

Q: What about the viability, T/C (second compound 0.1 µM, first compound 3.16 µM) of the same molecule?
A: 95.1%

Q: What about the viability, T/C (second compound 0.1 µM, first compound 10 µM) of the same molecule?
A: 70.8%

Q: And the viability, T/C [17]?
A: 89.8%

Q: And the viability, T/C [18]?
A: 68.3%

Q: What about the viability, T/C [19] of the same molecule?
A: 86%

Q: What about the viability, T/C [20] of the same molecule?
A: 86.3%

Q: And the viability, T/C (second compound 0.316 µM, first compound 3.16 µM)?
A: 91.1%

Q: And the viability, T/C (second compound 0.316 µM, first compound 10 µM)?
A: 91.5%

Q: And the viability, T/C [21]?
A: 95.4%

Q: What about the viability, T/C [22] of the same molecule?
A: 87.5%

Q: And the viability, T/C [23]?
A: 94.1%

Q: And the viability, T/C [24]?
A: 83.6%

Q: And the viability, T/C (second compound 1 µM, first compound 3.16 µM)?
A: 96.4%

Q: And the viability, T/C (second compound 1 µM, first compound 10 µM)?
A: 74.2%

Q: How did the IC50 (second compound 0.00316 µM) turn out when CCN1CCN(Cc2ccc(Nc3ncc(F)c(-c4cc(F)c5nc(C)n(C(C)C)c5c4)n3)nc2)CC1 + CC(Nc1ccc2c(c1)OCCn1cc(N3C(=O)OCC3C(F)F)nc1-2)C(N)=O was run?
A: > 1000 nM

Q: What about the IC50 (second compound 0.01 µM) of the same molecule?
A: > 1000 nM

Q: And the IC50 (second compound 0.0316 µM)?
A: > 1000 nM

Q: And the IC50 (second compound 0.1 µM)?
A: > 1000 nM

Q: And the IC50 (second compound 0.316 µM)?
A: > 1000 nM

Q: What about the IC50 (second compound 1 µM) of the same molecule?
A: > 1000 nM

Q: What about the viability, T/C [25] of the same molecule?
A: 92.9%

Q: What about the viability, T/C [26] of the same molecule?
A: 87.8%

Q: And the viability, T/C [1]?
A: 80.5%

Q: What about the viability, T/C [2] of the same molecule?
A: 105%

Q: What about the viability, T/C [3] of the same molecule?
A: 91.5%

Q: What about the viability, T/C [4] of the same molecule?
A: 118%

Q: What about the viability, T/C [27] of the same molecule?
A: 97.7%

Q: And the viability, T/C [28]?
A: 98.2%

Q: And the viability, T/C [5]?
A: 114%

Q: And the viability, T/C [6]?
A: 89.2%

Q: And the viability, T/C [7]?
A: 92.1%

Q: What about the viability, T/C [8] of the same molecule?
A: 106%

Q: What about the viability, T/C [29] of the same molecule?
A: 77.1%

Q: And the viability, T/C [30]?
A: 86.4%

Q: And the viability, T/C [9]?
A: 83.5%

Q: What about the viability, T/C [10] of the same molecule?
A: 76.3%

Q: And the viability, T/C [11]?
A: 97.8%

Q: What about the viability, T/C [12] of the same molecule?
A: 105%

Q: And the viability, T/C [31]?
A: 93.4%

Q: And the viability, T/C [32]?
A: 77.6%

Q: And the viability, T/C [13]?
A: 86.4%

Q: And the viability, T/C [14]?
A: 77.3%

Q: And the viability, T/C [15]?
A: 89.4%

Q: And the viability, T/C [16]?
A: 119%

Q: What about the viability, T/C [33] of the same molecule?
A: 102%

Q: And the viability, T/C [34]?
A: 89%

Q: What about the viability, T/C [17] of the same molecule?
A: 87.2%

Q: What about the viability, T/C [18] of the same molecule?
A: 92.4%

Q: What about the viability, T/C [19] of the same molecule?
A: 90.1%

Q: And the viability, T/C [20]?
A: 105%

Q: And the viability, T/C [35]?
A: 85.6%

Q: And the viability, T/C [36]?
A: 83.7%

Q: What about the viability, T/C [21] of the same molecule?
A: 90.9%

Q: And the viability, T/C [22]?
A: 85.8%

Q: What about the viability, T/C [23] of the same molecule?
A: 87.2%

Q: And the viability, T/C [24]?
A: 96.3%

Q: How did the IC50 (second compound 0.00316 µM) turn out when Cn1ncnc1[C@H]1c2n[nH]c(=O)c3cc(F)cc(c23)N[C@@H]1c1ccc(F)cc1 + CC(Nc1ccc2c(c1)OCCn1cc(N3C(=O)OCC3C(F)F)nc1-2)C(N)=O was run?
A: > 100 nM

Q: What about the IC50 (second compound 0.01 µM) of the same molecule?
A: > 100 nM

Q: And the IC50 (second compound 0.0316 µM)?
A: > 100 nM

Q: And the IC50 (second compound 0.1 µM)?
A: > 100 nM

Q: And the IC50 (second compound 0.316 µM)?
A: > 100 nM

Q: What about the IC50 (second compound 1 µM) of the same molecule?
A: > 100 nM

Q: And the viability, T/C (second compound 0.00316 µM, first compound 0.000316 µM)?
A: 78.6%

Q: And the viability, T/C (second compound 0.00316 µM, first compound 0.001 µM)?
A: 115%

Q: What about the viability, T/C [25] of the same molecule?
A: 96.8%

Q: What about the viability, T/C [26] of the same molecule?
A: 95.4%

Q: What about the viability, T/C [1] of the same molecule?
A: 94.8%

Q: And the viability, T/C [2]?
A: 82.2%

Q: And the viability, T/C (second compound 0.01 µM, first compound 0.000316 µM)?
A: 112%

Q: And the viability, T/C (second compound 0.01 µM, first compound 0.001 µM)?
A: 82.4%

Q: And the viability, T/C [27]?
A: 92.9%

Q: And the viability, T/C [28]?
A: 90.4%

Q: What about the viability, T/C [5] of the same molecule?
A: 93.1%

Q: What about the viability, T/C [6] of the same molecule?
A: 91.5%

Q: What about the viability, T/C (second compound 0.0316 µM, first compound 0.000316 µM) of the same molecule?
A: 96.7%

Q: What about the viability, T/C (second compound 0.0316 µM, first compound 0.001 µM) of the same molecule?
A: 97.1%

Q: And the viability, T/C [29]?
A: 101%

Q: What about the viability, T/C [30] of the same molecule?
A: 81.3%

Q: What about the viability, T/C [9] of the same molecule?
A: 90.5%

Q: What about the viability, T/C [10] of the same molecule?
A: 89.5%

Q: And the viability, T/C (second compound 0.1 µM, first compound 0.000316 µM)?
A: 108%

Q: What about the viability, T/C (second compound 0.1 µM, first compound 0.001 µM) of the same molecule?
A: 89%

Q: What about the viability, T/C [31] of the same molecule?
A: 81.2%

Q: And the viability, T/C [32]?
A: 89.8%

Q: What about the viability, T/C [13] of the same molecule?
A: 74.4%

Q: What about the viability, T/C [14] of the same molecule?
A: 84.9%

Q: What about the viability, T/C (second compound 0.316 µM, first compound 0.000316 µM) of the same molecule?
A: 90.7%

Q: And the viability, T/C (second compound 0.316 µM, first compound 0.001 µM)?
A: 78%

Q: And the viability, T/C [33]?
A: 81.9%

Q: What about the viability, T/C [34] of the same molecule?
A: 98.3%

Q: And the viability, T/C [17]?
A: 74.8%

Q: And the viability, T/C [18]?
A: 86.1%

Q: And the viability, T/C (second compound 1 µM, first compound 0.000316 µM)?
A: 91.6%

Q: What about the viability, T/C (second compound 1 µM, first compound 0.001 µM) of the same molecule?
A: 85.3%

Q: What about the viability, T/C [35] of the same molecule?
A: 90%

Q: And the viability, T/C [36]?
A: 86.2%

Q: What about the viability, T/C [21] of the same molecule?
A: 110%

Q: And the viability, T/C [22]?
A: 77.9%
